# Values quoted from earlier work, collected in patent US20100209356A1, “CONTRAST AGENTS” (priority 2007, published 2010).
# Settings: high risk patients; iodixanol compared with a low-osmolar, non-ionic contrast medium
smiles,measurement,value
CC(=O)N(CC(O)CN(C(C)=O)c1c(I)c(C(=O)NCC(O)CO)c(I)c(C(=O)NCC(O)CO)c1I)c1c(I)c(C(=O)NCC(O)CO)c(I)c(C(=O)NCC(O)CO)c1I (stereo not shown) [iodixanol],nephropathy induced by contrast medium,less likely to develop
